{"source": "patent US9040458B2", "about": "“Safening composition of 6-(trisubstituded phenyl)-4-amino-2-pyridinecarboxylate herbicides and cloquintocet-mexyl for cereal crops” (Dow AgroSciences LLC, priority 2008, dated 2015)", "key": {"PAPRH (corn poppy)": {"system": "PAPRH (corn poppy)", "experiment": "Postemergence herbicidal activity, greenhouse, visual injury", "assay_type": "in vivo, Papaver rhoeas", "settings": "applied alone at 35 g/ha; 20-22 d", "method": "(§1) Seeds of the desired test plant species were planted in Sun Gro MetroMix® 306 planting mixture, which typically has a pH of 6.0 to 6.8 and an organic matter content of about 30 percent, in plastic pots with a surface area of 103.2 square centimeters (cm^2). When required to ensure good germination and healthy plants, a fungicide treatment and/or other chemical or physical treatment was applied. The plants were grown for 7-36 days (d) in a greenhouse with an approximate […] photoperiod which was maintained at about 18° C. during the day and 17° C. during the night. Nutrients and water were added on a regular basis and supplemental lighting was provided with overhead metal halide 1000-Watt lamps as necessary. The plants were employed for testing when they reached the second or third true leaf stage.\n(§2) Weighed amounts of esters (methyl) or salts (TEA [triethylammonium], potassium [K]) of 4-amino-3-chloro-6-(4-chloro-2-fluoro-3-methoxyphenyl)pyridine-2-carboxylic acid (Compound 1) were dissolved in a volume of 97:3 volume/volume (v/v) acetone/dimethylsulfoxide (DMSO) to obtain stock solutions. […] The concentrated stock solutions were diluted with an aqueous mixture of 1.5% v/v of Agri-dex crop oil concentrate to provide the appropriate application rates. Compound requirements are based upon a 12 mL application volume at a rate of 187 liters per hectare (L/ha). Stocks solutions of the safeners were prepared following the same procedure. Spray solutions of the safeners and experimental compound mixtures were prepared by adding the appropriate volume of both stock solutions to the appropriate amount of dilution solution to form a 12 mL spray solution with active ingredients in two-way combinations. Formulated compounds were applied to the plant material with an overhead Mandel track sprayer equipped with 8002E nozzles calibrated to deliver 187 L/ha over an application area of 0.503 square meters (m^2) at a spray height of 18 inches (43 centimeters (cm)) above average plant canopy. Control plants were sprayed in the same manner with the solvent blank.\n(§3) The treated plants and control plants were placed in a greenhouse as described above and watered by sub-irrigation to prevent wash-off of the test compounds. After 20-22 d, the condition of the test plants as compared with that of the control plants was determined visually and scored on a scale of 0 to 100 percent where 0 corresponds to no injury and 100 corresponds to complete kill.\n(§4) Colby's equation was used to determine the herbicidal effects expected from the mixtures (Colby, S. R., Calculation of the synergistic and antagonistic response of herbicide combinations. Weeds 1967, 15, 20-22.).\n(§5) The following equation was used to calculate the expected activity of mixtures containing two active ingredients, A and B: Expected=A+B−(A×B/100)\n(§6) A=observed efficacy of active ingredient A at the same concentration as used in the mixture.\n(§7) B=observed efficacy of active ingredient B at the same concentration as used in the mixture."}, "HORVW (winter barley)": {"system": "HORVW (winter barley)", "experiment": "Postemergence herbicidal safening, greenhouse, visual injury", "assay_type": "in vivo, Hordeum vulgare", "settings": "applied alone at 140 g/ha; 20-22 d; listed as 1 Methyl Ester", "method": "as §1, with “stage. […]” for “stage.”\nas §3, with “kill. […]” for “kill.”"}, "[1]": {"system": "TRZAS = Triticum aestivum (spring wheat)", "experiment": "Postemergence herbicidal safening, greenhouse, visual injury", "assay_type": "in vivo", "settings": "20-22 d", "method": "as §1, §2, §3, §4, §5, §6, §7"}, "[2]": {"system": "HORVS = Hordeum vulgare (spring barley)", "experiment": "Postemergence herbicidal safening, greenhouse, visual injury", "assay_type": "in vivo", "settings": "20-22 d", "method": "as §1, §2, §3, §4, §5, §6, §7"}, "[3]": {"system": "TRZAW = Triticum aestivum (winter wheat)", "experiment": "Postemergence herbicidal safening, greenhouse, visual injury", "assay_type": "in vivo", "settings": "applied alone at 140 g/ha; 20-22 d; listed as 1 Methyl Ester", "method": "as §1, §2, §3, §4, §5, §6, §7"}, "[4]": {"system": "GALAP = Galium aparine (cleavers)", "experiment": "Postemergence herbicidal activity, greenhouse, visual injury", "assay_type": "in vivo", "settings": "applied alone at 140 g/ha; 20-22 d", "method": "as §1, §2, §3, §4, §5, §6, §7"}, "[5]": {"system": "VIOTR = Viola tricolor (wild pansy)", "experiment": "Postemergence herbicidal activity, greenhouse, visual injury", "assay_type": "in vivo", "settings": "applied alone at 140 g/ha, 20-22 d", "method": "as §1, §2, §3, §4, §5, §6, §7"}, "[6]": {"system": "MATCH = Matricaria chamomila (scented mayweed)", "experiment": "Postemergence herbicidal activity, greenhouse, visual injury", "assay_type": "in vivo", "settings": "applied alone at 140 g/ha, 20-22 d", "method": "as §1, §2, §3, §4, §5, §6, §7"}, "[7]": {"system": "KCHSC = Kochia scoparia (kochia)", "experiment": "Postemergence herbicidal activity, greenhouse, visual injury", "assay_type": "in vivo", "settings": "applied alone at 140 g/ha, 20-22 d", "method": "as §1, §2, §3, §4, §5, §6, §7"}, "[8]": {"system": "VERPE = Veronica persica (bird's-eye speedwell)", "experiment": "Postemergence herbicidal activity, greenhouse, visual injury", "assay_type": "in vivo", "settings": "applied alone at 140 g/ha, 20-22 d", "method": "as §1, §2, §3, §4, §5, §6, §7"}, "[9]": {"system": "SASKR = Salsola iberica (Russian thistle)", "experiment": "Postemergence herbicidal activity, greenhouse, visual injury", "assay_type": "in vivo", "settings": "applied alone at 140 g/ha, 20-22 d", "method": "as §1, §2, §3, §4, §5, §6, §7"}, "[10]": {"system": "LAMPU (purple deadnettle)", "experiment": "Postemergence herbicidal activity, greenhouse, visual injury", "assay_type": "in vivo, Lamium purpureum", "settings": "applied alone at 35 g/ha; 20-22 d", "method": "as §1, §2, §3, §4, §5, §6, §7"}, "[11]": {"settings": "applied alone at 8.75 g/ha, listed as 1 Methyl Ester"}, "[12]": {"settings": "applied alone at 35 g/ha, listed as 1 Methyl Ester"}, "[13]": {"settings": "applied alone at 35 g/ha, listed as (I) Methyl ester"}, "[14]": {"settings": "applied alone at 140 g/ha, listed as 1 Methyl Ester"}, "[15]": {"settings": "applied alone at 8.75 g/ha, listed as (1) K-salt"}, "[16]": {"settings": "applied alone at 35 g/ha, listed as (1) K-salt"}, "[17]": {"settings": "applied alone at 140 g/ha, listed as (1) K-salt"}}, "note": "Where a name gives a salt, the structure may show the parent alone."}
{"smiles": "COc1c(Cl)ccc(-c2cc(N)c(Cl)c(C(=O)O)n2)c1F", "note": "[Compound 1 Methyl Ester, 4-amino-3-chloro-6-(4-chloro-2-fluoro-3-methoxyphenyl)pyridine-2-carboxylic acid]", "values": [{"measurement": "PAPRH Ob (observed injury)", "setting": "PAPRH (corn poppy)", "result": 97, "unit": "%"}, {"measurement": "HORVW Ob (observed injury)", "setting": "HORVW (winter barley)", "result": 42, "unit": "%"}, {"measurement": "TRZAS Ob (observed injury)", "setting": "[1]; [11]", "result": 13, "unit": "%"}, {"measurement": "TRZAS Ob (observed injury)", "setting": "[1]; [12]", "result": 43, "unit": "%"}, {"measurement": "TRZAS Ob (observed injury)", "setting": "[1]; [13]", "result": 45, "unit": "%"}, {"measurement": "TRZAS Ob (observed injury)", "setting": "[1]; applied alone at 70 g/ha, listed as 1 Methyl Ester", "result": 25, "unit": "%"}, {"measurement": "TRZAS Ob (observed injury)", "setting": "[1]; [14]", "result": 37, "unit": "%"}, {"measurement": "HORVS Ob (observed injury)", "setting": "[2]; [11]", "result": 22, "unit": "%"}, {"measurement": "HORVS Ob (observed injury)", "setting": "[2]; [12]", "result": 38, "unit": "%"}, {"measurement": "HORVS Ob (observed injury)", "setting": "[2]; [13]", "result": 43, "unit": "%"}, {"measurement": "HORVS Ob (observed injury)", "setting": "[2]; [14]", "result": 42, "unit": "%"}, {"measurement": "TRZAW Ob (observed injury)", "setting": "[3]", "result": 32, "unit": "%"}, {"measurement": "GALAP Ob (observed injury)", "setting": "[4]", "result": 100, "unit": "%"}, {"measurement": "VIOTR Ob (observed injury)", "setting": "[5]; listed as 1 Methyl Ester", "result": 67, "unit": "%"}, {"measurement": "MATCH Ob (observed injury)", "setting": "[6]; listed as 1 Methyl Ester", "result": 82, "unit": "%"}, {"measurement": "KCHSC Ob (observed injury)", "setting": "[7]; listed as 1 Methyl Ester", "result": 100, "unit": "%"}, {"measurement": "VERPE Ob (observed injury)", "setting": "[8]; listed as 1 Methyl Ester", "result": 91, "unit": "%"}, {"measurement": "SASKR Ob (observed injury)", "setting": "[9]; listed as 1 Methyl Ester", "result": 91, "unit": "%"}, {"measurement": "LAMPU Ob (observed injury)", "setting": "[10]", "result": 100, "unit": "%"}]}
{"smiles": "COc1c(Cl)ccc(-c2cc(N)c(Cl)c(C(=O)O)n2)c1F", "note": "[Compound (1) K-salt, 4-amino-3-chloro-6-(4-chloro-2-fluoro-3-methoxyphenyl)pyridine-2-carboxylic acid]", "values": [{"measurement": "TRZAS Ob (observed injury)", "setting": "[1]; [15]", "result": 15, "unit": "%"}, {"measurement": "TRZAS Ob (observed injury)", "setting": "[1]; [16]", "result": 43, "unit": "%"}, {"measurement": "TRZAS Ob (observed injury)", "setting": "[1]; applied alone at 70 g/ha, listed as (1) K-salt", "result": 11, "unit": "%"}, {"measurement": "TRZAS Ob (observed injury)", "setting": "[1]; [17]", "result": 52, "unit": "%"}, {"measurement": "HORVS Ob (observed injury)", "setting": "[2]; [15]", "result": 25, "unit": "%"}, {"measurement": "HORVS Ob (observed injury)", "setting": "[2]; [16]", "result": 38, "unit": "%"}, {"measurement": "HORVS Ob (observed injury)", "setting": "[2]; [17]", "result": 45, "unit": "%"}, {"measurement": "VIOTR Ob (observed injury)", "setting": "[5]; listed as (1) K-salt", "result": 63, "unit": "%"}, {"measurement": "MATCH Ob (observed injury)", "setting": "[6]; listed as (1) K-salt", "result": 88, "unit": "%"}, {"measurement": "KCHSC Ob (observed injury)", "setting": "[7]; listed as (1) K-salt", "result": 100, "unit": "%"}, {"measurement": "VERPE Ob (observed injury)", "setting": "[8]; listed as (1) K-salt", "result": 87, "unit": "%"}, {"measurement": "SASKR Ob (observed injury)", "setting": "[9]; listed as (1) K-salt", "result": 87, "unit": "%"}]}
